Columns and labels:
[1] = biological target: T1, panel of 442 kinases (Homo sapiens, UniProt Q02156); assay type: binding; details: Compound Concentration 10 µM
T1 construct: purchased KINOMEscan
T1 sequence (Q02156 1-737): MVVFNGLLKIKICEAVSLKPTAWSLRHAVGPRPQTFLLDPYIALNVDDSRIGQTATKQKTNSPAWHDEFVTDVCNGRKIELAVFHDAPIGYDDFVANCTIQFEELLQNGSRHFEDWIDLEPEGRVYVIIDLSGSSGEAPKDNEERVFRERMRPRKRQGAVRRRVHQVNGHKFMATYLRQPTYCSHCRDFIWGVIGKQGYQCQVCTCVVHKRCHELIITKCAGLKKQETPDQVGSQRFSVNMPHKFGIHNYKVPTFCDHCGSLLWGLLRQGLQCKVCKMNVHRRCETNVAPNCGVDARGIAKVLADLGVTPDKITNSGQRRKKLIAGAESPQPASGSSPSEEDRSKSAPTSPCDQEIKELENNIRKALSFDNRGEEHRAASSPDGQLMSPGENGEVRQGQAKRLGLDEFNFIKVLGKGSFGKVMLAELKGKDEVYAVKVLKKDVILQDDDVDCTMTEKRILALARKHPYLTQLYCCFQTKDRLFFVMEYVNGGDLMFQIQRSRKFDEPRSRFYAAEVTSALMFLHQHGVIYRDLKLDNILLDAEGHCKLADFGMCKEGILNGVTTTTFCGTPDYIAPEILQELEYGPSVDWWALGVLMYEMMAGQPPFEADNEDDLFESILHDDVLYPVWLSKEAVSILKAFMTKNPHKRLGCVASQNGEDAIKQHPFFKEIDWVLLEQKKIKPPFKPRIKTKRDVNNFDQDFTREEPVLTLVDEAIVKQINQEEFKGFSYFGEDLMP
Source text: (§1) We assessed the selectivity of members of this scaffold using the KINOMEscan methodology across a near comprehensive panel of 442 kinases [[18,27]].

[2] = biological target: T2, panel of 442 kinases (Homo sapiens, UniProt O15530); assay type: binding; details: Compound Concentration 10 µM
T2 construct: purchased KINOMEscan
T2 sequence (O15530 1-556): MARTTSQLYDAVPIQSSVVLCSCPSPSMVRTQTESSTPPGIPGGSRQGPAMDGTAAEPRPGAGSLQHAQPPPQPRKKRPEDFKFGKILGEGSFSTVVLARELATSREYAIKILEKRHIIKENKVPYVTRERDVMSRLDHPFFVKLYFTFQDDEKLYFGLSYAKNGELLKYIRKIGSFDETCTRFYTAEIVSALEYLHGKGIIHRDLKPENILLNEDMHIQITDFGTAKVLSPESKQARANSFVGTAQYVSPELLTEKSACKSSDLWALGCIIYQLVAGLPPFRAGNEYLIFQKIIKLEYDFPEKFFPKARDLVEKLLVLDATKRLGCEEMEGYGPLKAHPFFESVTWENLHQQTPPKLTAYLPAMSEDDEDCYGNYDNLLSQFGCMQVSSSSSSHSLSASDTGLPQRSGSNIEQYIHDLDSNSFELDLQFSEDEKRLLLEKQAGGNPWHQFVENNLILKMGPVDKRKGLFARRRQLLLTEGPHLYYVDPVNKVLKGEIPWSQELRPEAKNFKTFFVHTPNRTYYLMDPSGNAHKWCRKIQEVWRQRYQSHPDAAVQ
Source text: as §1

SMILES | KINOMEscan: PRKCE [1] | KINOMEscan: PDPK1 [2]
CCOc1cc(C(=O)N2CCC(N3CCN(C)CC3)CC2)ccc1Nc1ncc2c(n1)N(C1CCCC1)c1ccccc1C(=O)N2C [Compound 26] | 98 | 99
COc1cc(C(=O)N2CCC(N3CCN(C)CC3)CC2)ccc1Nc1ncc2c(n1)N(C1CCCC1)c1ccccc1C(=O)N2C [Compound 25, 11-cyclopentyl-2-((2-methoxy-4-(4-(4-methylpiperazin-1-yl)piperidine-1-carbonyl)phenyl)amino)-5-methyl-5H-benzo[e]pyrimido[5,4-b][1,4]diazepin-6(11H)-one] | 79 | 98
COc1cc(C(=O)N2CCC(N3CCN(C)CC3)CC2)ccc1Nc1ncc2c(n1)N1CCc3cccc(c31)C(=O)N2C [Compound 24] | 72 | –
COc1cc(C(=O)N2CCC(N3CCN(C)CC3)CC2)ccc1Nc1ncc2c(n1)N(C)c1ccccc1C(=O)N2C [15 (LRRK2-IN-1)] | 100 | 100
